The numbers were not newly measured in patent US20250268950A1, “PRENATAL SUPPLEMENT” (Arizona Board of Regents on Behalf of Arizona State …, priority 2021, published 2025), which cites them from elsewhere.

Like-named read-outs stand apart in the source and are kept apart here.

The conditions of data set [1]: for plasma level as % of level at 2500 mg: non-pregnant women.
A further data set has as its system pregnant women. The note with it: for decrease in anxiety symptoms / decrease in depression: RCT, 1 mg/day.
Data set [2] relates to pregnant women and their infants. The following applies: maternal blood levels in the highest quartile; 397 ASD, 1034 controls.
The test system of data set [3] is non-pregnant women with polycystic ovary syndrome; diabetes.
The test system of data set [4] is pregnant women and their infants. The note with it: prenatal with vitamin E and dietary intake in upper half (12.6-33.8 mg/day).
Setting [5] is: diabetes, meta-analysis of 22 randomized controlled trials.

Consider `C=C1CCC(O)CC1=CC=C1CCCC2(C)C1CCC2C(C)CCCC(C)C` (stereo not shown) [Vitamin D], for which the “asthma/recurrent wheeze at 0-3 yrs, adjusted OR” value in the data set with infants (combined analysis of two studies, 2400 IU/day and 4000 IU/day) was 0.74. Further, the “Tolerable Upper Limit for Pregnant Women” value (Table 12) is recorded as 4000 IU. Besides, the “blood levels of vitamin D” value in data set [1] (2000-4000 IU/day) is reported as “higher blood levels than just 400 IU/day”. Moreover, in the data set on pregnant women (400-600 IU/day during pregnancy, after confounder adjustment), the “reduction of risk of preeclampsia” value is on record as 29%. Further, the “rate of maternal secondary hyperparathyroidism” value with pregnant women (800 IU/day (from 27%)) is recorded as 10%.

Turning to `[Mn+2]` [Manganese], the “Tolerable Upper Limit for Pregnant Women” value (Table 18) is on record as 11 mg. In addition, in data set [2], the “risk of ASD, OR” value was 1.84.

For the compound `[Cr]` [Chromium], in data set [3] (200 i.g for eight weeks, non-pregnant women with polycystic ovary syndrome (vs. 3%)), the pregnancy rate is 17%. Moreover, the atypical depression result in data set [3] (400-600 i.g/day) was “helpful for atypical depression”. Moreover, in data set [3] (setting [5]), the adverse events entry was “no difference in the adverse events between chromium and placebo”; the “glycemic control and lipids” value was “improved glycemic control, reduced triglycerides, and increased HDL-C”. Also, in the data set with pregnant women (4 i.g/kg, 24 women with gestational diabetes, U.S.), the “fasting plasma glucose and insulin levels” value is “significantly improved their fasting plasma glucose and insulin levels”.

For `[Mg]` [Magnesium], in the data set on infants (300 mg/day of elemental magnesium, Brazil), the “perinatal and maternal composite outcome” value is “did not find any effect on perinatal composite outcome”. The “preterm birth, RR” value with infants (metanalysis of six RCT's, 3068 pregnant women) is reported as 0.58. In addition, for the setting “supplementation studies, 184-500 mg/day”, the tolerability entry was “well-tolerated”. Also, the magnesium blood levels entry in data set [1] (345 mg/day) is given as “enough to keep magnesium levels stable”. In addition, the “rate of pregnancy-induced hypertension” value in the data set with pregnant women (Angola and China studies combined, 201 participants (vs. 21% placebo)) is 4%. Besides, the rate of edema in the data set on pregnant women (Angola study (vs. 58%)) is 24%.

As to `O[C@H]1[C@H](O)[C@@H](O)[C@H](O)[C@@H](O)[C@H]1O` [Inositol, Myo-inositol], the macrosomia in the data set with infants (4000 mg/day, women at risk of gestational diabetes (vs 5.3%)) was 2.1%. Also, in the data set on infants (4000 mg/day, women at risk of gestational diabetes (vs. 7.6%)), the preterm birth is 3.4%. In the data set with infants (4000 mg/day, women at risk of gestational diabetes (vs. 8.9%)), the “large for gestational age” value was 4.8%. Moreover, the side effects result by setting is: (high doses up to 18 grams per day) “Only some mild diarrhea”; (less than 6 grams per day) “zero side effects”. The gestational diabetes result with pregnant women (2000 mg/day, 223 overweight, non-obese pregnant women) is on record as “significant decrease in gestational diabetes compared to placebo”; in the data set on pregnant women (4000 mg/day, women at risk of gestational diabetes (vs. 25%)), 11%; with pregnant women (4 grams per day, at risk women) it was “greatly reduced gestational diabetes (GD)”.

Turning to `O=C1O[C@H]([C@@H](O)CO)C(O)=C1O` [Vitamin C], in the data set with infants (500 mg/day), the “infant pulmonary function and wheezing” value was “improved infant pulmonary function and significantly decreased wheezing through age 1 year”. In addition, the “Tolerable Upper Limit for Pregnant Women” value (Table 12) is recorded as 2000 mg. Also, the “maintenance of vitamin C concentrations” value in data set [1] (100 mg supplementation) was “enough to maintain a constant leukocyte concentration (storage) of vitamin C, but not enough to maintain plasma concentrations”. Further, the “plasma level as % of level at 2500 mg” value is listed as “approximately 79%” in data set [1] (steady-state 100 mg/day), approximately 88% in data set [1] (steady-state 200 mg/day), approximately 95% in data set [1] (steady-state 400 mg/day) and approximately 97% in data set [1] (steady-state 1000 mg/day). In the data set with pregnant women (Cochrane meta-analysis, vitamin C alone, 170 participants), the “risk of term PROM, RR” value is on record as 0.55. Moreover, the “risk of preterm PROM, RR” value in the data set with pregnant women (Cochrane meta-analysis, vitamin C alone, 1282 participants, five studies) was 0.66. For the same compound, the “rate of urinary tract infections during pregnancy” value in the data set on pregnant women (Mexico, 100 mg/day (vs. 29%)) is given as 13%. For the same compound, in the data set with pregnant women (Uganda, 400 mg (vs. 28% for placebo (so in the source))), the hospitalization during pregnancy was 42%.

`[Cu]` [Copper]: the “Tolerable Upper Limit for Pregnant Women” value (Table 18) is given as 10 mg. Moreover, the copper levels result in data set [1] (2 mg as part of a multi-vitamin/mineral supplement, France) was “no difference in copper levels between treatment and placebo groups”. In the data set on pregnant women (second trimester), the “decrease in anxiety symptoms” value is 45% and the decrease in depression is 75%. For the same compound, in the data set on pregnant women (third trimester), the “decrease in anxiety symptoms” value is reported as 80% and the decrease in depression is reported as 90%.

On to `Cc1ncc(CO)c(CO)c1O` [Vitamin B6, Pyridoxine], for which, in the data set with infants (2 mg), the “effect on birth weight” value is recorded as “sufficient to improve birth weight”. For the same compound, the “Tolerable Upper Limit for Pregnant Women” value (Table 12) is 100 mg. Moreover, the “dental decay during pregnancy” value in the data set on pregnant women (20 mg/day) was “significantly reduced the rate of dental decay during pregnancy”. The symptoms of nausea result in the data set on pregnant women (25 mg every 8 hours for 3 days) is on record as “decrease symptoms of nausea”.

Turning to `CC1=C(/C=C/C(C)=C/C=C/C(C)=C/CO)C(C)(C)CCC1` [Vitamin A, retinol], the “Tolerable Upper Limit for Pregnant Women” value (Table 12) was 3 mg. Besides, the “vitamin A levels lower than healthy non-pregnant controls” value in data set [1] (5000 IU/day (50% as beta carotene), first, second, third trimesters) is listed as 27%. Besides, the “reduction of night blindness during pregnancy” value with pregnant women (Nepal, 7000 mcg/week) is 67%. Moreover, the “risk of anemia, RR” value with pregnant women (meta-analysis of 8 studies, supplementation) is recorded as 0.81.

As to chromium picolinate, the “comparison of chromium forms” value in data set [3] (setting [5]) was “the form with the greatest effects on glucose and triglyceride levels”.

Vitamin E: in the data set on infants (about 450 mg/day (about 675 IU/day), non-randomized (vs. 9.3%)), the “rate of preterm births” value was 6.6%. In the data set on infants (approximately 200-600 mg/day (vs. 10.4% unsupplemented)), the “rate of preterm births in women with preeclampsia” value is listed as 8.6%. For the same compound, where the note is “Table 12”, the “Tolerable Upper Limit for Pregnant Women” value is listed as 1000 mg. Also, the “increase of vitamin E levels by third trimester” value in data set [1] (30 IU, US) is given as 50%. Besides, the “risk of placental abruption, RR” value in the data set on pregnant women (Cochrane, alpha-tocopherol 200-800 IU with other supplements, 7 trials, 14,922 participants) was 0.64. In addition, in data set [4], the “risk of congenital heart defects, times higher” value was 5-9.
